# From PMC7984390 (Journal of Clinical Pharmacology, 2020)
# Values joined by “and” are separate entries in the source; they are usually repeats but may differ in a detail not shown here. Equal values may be shown once. “Also recorded” adds a separate entry of the source.
# Columns and labels:
# [1] = Phase 1 study: iohexol plasma clearance as marker of GFR; format: in vivo, human; conditions: for Iohexol C0, arithmetic mean (CV%) / Iohexol CLsyst, arithmetic mean (CV%): iohexol iv
# [2] = Phase 1 study: endogenous markers of renal function; format: in vivo, human
# Phase 1 study: safety = format: in vivo, human; conditions: by treatment period; healthy subjects
# [3] = cited from earlier work
# [4] = treatment metformin + tucatinib, n = 17
# [5] = combination treatment versus metformin alone
# [6] = metformin alone or with tucatinib, n = 17
# [7] = urine 0-24 h, metformin 850 mg oral, alone or with tucatinib, n = 17
structure (smiles),measurement,setting,value
Cc1cc(Nc2ncnc3ccc(NC4=NC(C)(C)CO4)cc23)ccc1Oc1ccn2ncnc2c1 [Tucatinib],Effect of tucatinib on GFR (iohexol clearance),[1]; tucatinib 300 mg twice daily,unchanged; also recorded: unaffected
same,Effect of tucatinib on cystatin C-based eGFR,[2]; tucatinib 300 mg twice daily,unchanged
same,Proportion of subjects who experienced TEAEs,Phase 1 study: safety,33.3%
same,Patients with adverse event of elevated serum creatinine concentration,"[3]; tucatinib arm (with trastuzumab and capecitabine), HER2CLIMB",13.9%
same,Patients with increased creatinine as a laboratory abnormality,"[3]; tucatinib arm, all grade 1 or 2",33%
same,Effect of tucatinib on metformin Cmax,tucatinib 300 mg twice daily coadministered with metformin 850 mg,no effect
CC(=O)N(CC(O)CO)c1c(I)c(C(=O)NCC(O)CO)c(I)c(C(=O)NCC(O)CO)c1I (stereo not drawn) [Iohexol],"Iohexol C0, arithmetic mean (CV%)",[1]; [4],178.5 (21.5) µg/mL
same,"Iohexol CLsyst, arithmetic mean (CV%)",[1]; [4],129.0 (22.0) mL/min
same,"Iohexol C0, arithmetic mean (CV%)","[1]; treatment metformin, n = 17",175.6 (18.0) µg/mL
same,"Iohexol CLsyst, arithmetic mean (CV%)","[1]; treatment metformin, n = 17",129.8 (22.7) mL/min
CN(C)C(=N)N=C(N)N [Metformin],"GFR, arithmetic mean (CV%)","[1]; calculated from iohexol plasma clearance, n = 17",94.99 (17.4) mL/min/1.73 m^2
same,"Mean eGFR derived from cystatin C, 12 hours postdose",[2]; [5],97.9 mL/min/1.73 m^2
same,"Mean eGFR derived from cystatin C, premetformin dose",[2]; [5],101.4 mL/min/1.73 m^2
same,Mean CrCl 24 hours postdose,[2]; day 2 (after metformin alone) versus day 9 (in the presence of tucatinib),152.3 mL/min
same,Mean cystatin C concentration prior to metformin dosing,[2]; metformin alone (day 1) versus tucatinib coadministration (day 8),0.846 mg/L
same,Mean cystatin C concentration 12 hours postmetformin dosing,[2]; metformin alone versus metformin and tucatinib,0.881 mg/L
same,Proportion of subjects who experienced TEAEs,Phase 1 study: safety,38.9%
same,Tmax,"human, plasma, oral, 850 mg",1.5 to 4 h
same,Cmax,"human, plasma, po, 850 mg",1300 ng/mL
same,"Metformin CLrenal, arithmetic mean (CV%)","metformin 850 mg oral, alone or with tucatinib 300 mg twice daily, n = 17",30.0 (27.0) L/h
same,"Metformin CL/F, geometric LSM",[6],102.0 L/h
same,"Metformin VzF, geometric LSM",[6],664.7 L
same,"Ae0‐24, amount of metformin excreted unchanged in urine, arithmetic mean (CV%)",[7],242.6 (26.5) mg
same,"Fe0‐24, cumulative fraction of metformin excreted unchanged in urine, arithmetic mean (CV%)",[7],28.54% and 28.5 (26.5) %
